Data taken from patent publication US12226455B2, “Medical composition for treating cardiac wasting and cachexia” (RELAXERA Pharmazeutische GmbH & Co. KG, priority 2019, dated 2025).
Marks after values point to notes of the source that are not given here.

Legend:
[1] = test system: patients with advanced cancer in the hospice setting; experiment: Level of dyspnea relative to baseline on a seven-level Likert scale (clinical study); format: in vivo, human; details: n=20
Description: (§1) 30 patients with advanced cancer in the hospice setting are included randomized and double-blind in a clinical study to a 10-day continuous sc. or iv. infusion of either synthetic human relaxin-2 (25 micrograms/kg body weight/day) (n=20) or placebo (n=10). The following exploratory clinical end-points are assessed at baseline and during treatment (day 3 and day 10): • 1. Patients are asked to report their current level of both dyspnea and general wellbeing relative to baseline using seven-level Likert scales. • 2. In the context of this study, ability of self-care is defined as ability to perform the measures of personal daily hygiene (washing, tooth-brushing) without help. • 3. Congestion is assessed as percentage of patients showing ankle edema or rales upon auscultation. • 4. Plasma levels of NT-proBNP (N-terminal fragment of pro-brain natriuretic peptide), a biomarker of cardiac decompensation, are determined. • 5. The four-meter gait speed (4MGS) is measured.

[2] = test system: patients with advanced cancer in the hospice setting; experiment: Ability of self-care (personal daily hygiene without help), yes-or-no level (clinical study); format: in vivo, human; details: n=20
Description: as §1

[3] = test system: patients with advanced cancer in the hospice setting; experiment: Level of general wellbeing relative to baseline on a seven-level Likert scale (clinical study); format: in vivo, human; details: 25 micrograms/kg body weight/day, n=20
Description: as §1

[4] = test system: patients with advanced cancer in the hospice setting; experiment: Congestion: ankle edema or rales upon auscultation, four-level scale (clinical study); format: in vivo, human; details: n=20
Description: as §1

[5] = test system: NT-proBNP; experiment: Plasma levels of NT-proBNP, biomarker of cardiac decompensation (clinical study); format: in vivo, human; details: n=20; for Plasma NT-proBNP, median: 25 micrograms/kg body weight/day
Description: as §1

[6] = test system: patients with advanced cancer in the hospice setting; experiment: Four-meter gait speed (4MGS) (clinical study); format: in vivo, human; details: n=20
Description: as §1

[7] = test system: hospice patients with advanced, incurable cancer; experiment: Overall conclusion of the 10-day clinical study in hospice patients; format: in vivo, human; details: continuous treatment for 10 days
Description: as §1

[8] = continuous subcutaneous infusion over 24 weeks; cited from earlier work
[9] = Day 3, 25 micrograms/kg body weight/day continuous sc. or iv. infusion
[10] = Day 3, 25 micrograms/kg body weight/day
[11] = Day 10, 25 micrograms/kg body weight/day

## human relaxin-2
[1]; [9]
  Level of dyspnea: markedly or moderately improved, absolute number of patients: 8
  Level of dyspnea: markedly or moderately improved, percentage of patients: (40)^# %
[1]; [10]
  Level of dyspnea: markedly or moderately worsened, absolute number of patients: 1
  Level of dyspnea: markedly or moderately worsened, percentage of patients: (5)^# %
[1]; [11]
  Level of dyspnea: markedly or moderately improved, absolute number of patients: 12
  Level of dyspnea: markedly or moderately improved, percentage of patients: (60)^# %
  Level of dyspnea: markedly or moderately worsened, absolute number of patients: 1
  Level of dyspnea: markedly or moderately worsened, percentage of patients: (5)^# %
[2]; Baseline
  Ability of self-care, absolute number of patients: 5
  Ability of self-care, percentage of patients: 25%
[2]; [10]
  Ability of self-care, absolute number of patients: 7
  Ability of self-care, percentage of patients: 35%
[2]; [11]
  Ability of self-care, absolute number of patients: 17
  Ability of self-care, percentage of patients: (85)* %
[3]; Day 3
  Level of general wellbeing: markedly or moderately improved, absolute number of patients: 9
  Level of general wellbeing: markedly or moderately improved, percentage of patients: (45)# %
  Level of general wellbeing: markedly or moderately worsened, absolute number of patients: 2
  Level of general wellbeing: markedly or moderately worsened, percentage of patients: (10)# %
[3]; Day 10
  Level of general wellbeing: markedly or moderately improved, absolute number of patients: 11
  Level of general wellbeing: markedly or moderately improved, percentage of patients: (55)# %
  Level of general wellbeing: markedly or moderately worsened, absolute number of patients: 1
  Level of general wellbeing: markedly or moderately worsened, percentage of patients: 5%
[4]; Baseline
  Congestion: moderate or severe edema, absolute number of patients: 15
  Congestion: moderate or severe edema, percentage of patients: (75) %
  Congestion: moderate or severe rales, absolute number of patients: 16
  Congestion: moderate or severe rales, percentage of patients: (80) %
[4]; [10]
  Congestion: moderate or severe edema, absolute number of patients: 10
  Congestion: moderate or severe edema, percentage of patients: (50) %
  Congestion: moderate or severe rales, absolute number of patients: 8
  Congestion: moderate or severe rales, percentage of patients: (40)^# %
[4]; [11]
  Congestion: moderate or severe edema, absolute number of patients: 6
  Congestion: moderate or severe edema, percentage of patients: (30)^# %
  Congestion: moderate or severe rales, absolute number of patients: 5
  Congestion: moderate or severe rales, percentage of patients: (25)^# %
[5]; Baseline
  Plasma NT-proBNP, median (IQR): 3438 (597-4175) pg/ml
[5]; Day 3
  Plasma NT-proBNP, median: 1813 pg/mL
[5]; Day 10
  Plasma NT-proBNP, median: 778 pg/mL
[6]; Baseline
  Four-meter gait speed, median: 0.56 m/s
  Unable to walk 4 m, % of patients: 35%
  Unable to walk 4 m, absolute number of patients: 7
[6]; [10]
  Four-meter gait speed, median: 0.66 m/s
  Unable to walk 4 m, % of patients: 25%
  Unable to walk 4 m, absolute number of patients: 5
[6]; [11]
  Four-meter gait speed, median: 0.86* m/s
  Unable to walk 4 m, % of patients: (15)^# %
  Unable to walk 4 m, absolute number of patients: 3
[7]
  Clinical signs of cardiac decompensation (congestion, dyspnea, circulating NT-proBNP): ameliorates clinical signs of cardiac decompensation
  Clinical status of hospice patients: markedly improves the clinical status
[8]
  Physiological changes under relaxin infusion: sustained physiological changes which closely mimicked those seen in human pregnancy
